# According to article PMC5428418, “Differential expression of chemosensory-protein genes in midguts in response to diet of Spodoptera litura” (Scientific Reports, 2017):
# Where two headings read alike, the source gives them in different places.
# Experiments:
# recombinant SlitCSP11 = recombinant SlitCSP11 (Spodoptera litura, UniProt A0A0P0EM27); assay type: binding; conditions: for binding affinity to SlitCSP11 (in words): competitive binding with 1-NPN; for IC50 SlitCSP11: competitor's concentration halving the initial fluorescence, protein 2 μM, ligand 0 to 20 μM, 1-NPN probe; for Kd SlitCSP11: dissociation constant of the competitor calculated from IC50: KD = [IC50]/(1 + [1-NPN]/K1-NPN)
# Chain of recombinant SlitCSP11 (A0A0P0EM27 entry or part of it): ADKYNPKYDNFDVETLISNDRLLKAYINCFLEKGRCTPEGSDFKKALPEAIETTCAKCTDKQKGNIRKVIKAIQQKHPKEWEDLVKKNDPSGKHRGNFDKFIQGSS
# Text: (§1) The curves were linearized by Scatchard plots.
# recombinant SlitCSP3 = recombinant SlitCSP3 (Spodoptera litura, UniProt A0A9J7EMU8); assay type: binding; conditions: for binding affinity to SlitCSP3 (in words): competitive binding with 1-NPN
# Chain of recombinant SlitCSP3 (A0A9J7EMU8 entry or part of it): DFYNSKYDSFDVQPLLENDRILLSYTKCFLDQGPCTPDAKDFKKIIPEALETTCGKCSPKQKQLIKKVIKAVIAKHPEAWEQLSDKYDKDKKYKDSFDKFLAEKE
# Text: as §1
# recombinant SlitCSP8 = recombinant SlitCSP8 (Spodoptera litura, UniProt A0A0P0EUM0); assay: Fluorescence competitive binding assay (1-NPN displacement), SlitCSP8; conditions: for binding affinity to SlitCSP8 (in words): competitive binding with 1-NPN; for IC50 SlitCSP8 / IC50: competitor's concentration halving the initial fluorescence, protein 2 μM, ligand 0 to 20 μM, 1-NPN probe; for Kd SlitCSP8 / Kd: dissociation constant of the competitor calculated from IC50: KD = [IC50]/(1 + [1-NPN]/K1-NPN); for IC50: read-out: IC50 SlitCSP8; for Kd: read-out: Kd SlitCSP8
# Chain of recombinant SlitCSP8 (A0A0P0EUM0 18-128 with tags or gaps limits assumed): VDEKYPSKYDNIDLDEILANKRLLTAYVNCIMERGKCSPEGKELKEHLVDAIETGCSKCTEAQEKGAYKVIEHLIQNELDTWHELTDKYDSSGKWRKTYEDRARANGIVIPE
# Experimental: The fluorescence spectra were recorded on an F-4500 FL Fluorescence Spectrophotometer (HITACHI) in a 1 cm light path quartz cuvette at 23 °C. The slit width used for excitation and emission was 5 nm. The compounds used to investigate the binding abilities of SlitCSPs were purchased from Sigma-Aldrich with the highest purity and stored as specified instruction by the manufacturer. […] The fluorescent probe N-phenyl-1-naphthylamine (1 − NPN) and all ligands used in competition experiments were dissolved in HPLC purity grade methanol. […] And then, 2 μM of protein was added and titrated with aliquots of 1 mM 1 − NPN to final concentrations of 2 to 20 μM. […] All values reported were obtained from three independent measurements. The corresponding to the maximum fluorescence emission was plotted against the ligand concentrations for the determination of the binding constants. The curves were linearized by Scatchard plots.
# [1] = competitor's concentration halving the initial fluorescence, protein 2 μM, ligand 0 to 20 μM, 1-NPN probe
# [2] = dissociation constant of the competitor calculated from IC50: KD = [IC50]/(1 + [1-NPN]/K1-NPN)
SMILES,IC50 SlitCSP11 (recombinant SlitCSP11),Kd SlitCSP11 (recombinant SlitCSP11),IC50 SlitCSP3 (recombinant SlitCSP3; [1]),Kd SlitCSP3 (recombinant SlitCSP3; [2]),binding affinity to SlitCSP8 (in words) (recombinant SlitCSP8),IC50 SlitCSP8 (recombinant SlitCSP8),Kd SlitCSP8 (recombinant SlitCSP8),also measured
CCc1ccco1 [2-Ethylfuran],u.d,u.d,u.d,u.d,poor affinities,u.d,u.d,binding affinity to SlitCSP11 (in words) (recombinant SlitCSP11): poor affinities; binding affinity to SlitCSP3 (in words) (recombinant SlitCSP3): poor affinities
O=Cc1ccc(CO)o1 [5-(Hydroxymethyl)furfural],u.d,u.d,–,–,–,u.d,u.d,–
O=Cc1ccccc1 [Benzaldehyde],–,–,–,–,–,–,–,IC50 (recombinant SlitCSP8): 5.26 µM; Kd (recombinant SlitCSP8): 7.47 µM
N#Cc1ccccc1 [Benzonitrile],u.d,u.d,u.d,u.d,poor affinities,u.d,u.d,binding affinity to SlitCSP11 (in words) (recombinant SlitCSP11): poor affinities; binding affinity to SlitCSP3 (in words) (recombinant SlitCSP3): poor affinities
OCc1ccccc1 [Benzyl alcohol],–,–,u.d,u.d,at low concentrations,–,–,–
CCCCN=C=S [Butyl isothiocyanate],–,–,u.d,u.d,–,u.d,u.d,–
CCCCCCCCCC#N [Decanenitrile],u.d,u.d,u.d,u.d,poor affinities,u.d,u.d,binding affinity to SlitCSP11 (in words) (recombinant SlitCSP11): poor affinities; binding affinity to SlitCSP3 (in words) (recombinant SlitCSP3): poor affinities
O=Cc1ccco1 [Furan-2-carboxaldehyde],–,–,u.d,u.d,–,u.d,–,–
CCCCCCCCCCCCCCCC(=O)O [Hexadecanoic acid],–,–,u.d,u.d,–,u.d,u.d,–
CCCCCC=O [Hexanal],u.d,u.d,u.d,–,–,–,–,binding affinity to SlitCSP11 (in words) (recombinant SlitCSP11): poor affinities; Kd SlitCSP3 (recombinant SlitCSP3): u.d; binding affinity to SlitCSP3 (in words) (recombinant SlitCSP3): poor affinities
NC(=O)c1ccncc1 [Isonicotinamide],–,–,–,–,at low concentrations,–,–,–
CC1CCC(C(C)C)C(O)C1 (stereo not shown) [Menthol],–,–,–,–,–,ud,u.d,–
S=C=NCCc1ccccc1 [Phenethyl isothiocyanate],–,–,–,–,–,–,–,IC50 (recombinant SlitCSP8): 4.34 µM; Kd (recombinant SlitCSP8): 6.17 µM
c1ccncc1 [Pyridine],–,–,–,–,–,u.d,u.d,IC50 SlitCSP3 (recombinant SlitCSP3): u.d; Kd SlitCSP3 (recombinant SlitCSP3): u.d
C=Cc1ccccc1 [Styrene],–,–,u.d,u.d,–,u.d,u.d,–
CC/C=C\CCO [cis-3-Hexen-1-ol],u.d,u.d,u.d,u.d,at low concentrations,–,–,–
CCC/C=C/C(=O)O [trans-2-Hexenoic acid],u.d,u.d,–,–,–,–,–,–
